Some test systems named below: DU-145 prostate; HOP-92 NSCLC; PC-3 prostate; SK-MEL-5 melanoma; NCI-H522 lung; UACC-62 melanoma; NCI-H23 lung; T-47D breast; HL-60(TB) leukemia; HCC-2998 colon.
Holding throughout (assay): inhibition of tumour cell growth, NCI panel, 48 h

Where “and” joins values, the source holds several entries; their conditions need not be identical. Equal values may be shown once.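 In this assay, cells in 96-well plates receive the compound at five concentrations for 48 hours. Endpoints are linearly interpolated between the surrounding concentrations. GI50: concentration for 50% inhibition of growth. TGI is the concentration that stops growth completely.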

For the molecule `Oc1ccc(NCc2nc3ccccc3[nH]2)cc1`, the GI50 was 75.9 µM with DU-145 prostate; 12.8 µM in the assay on HOP-92 NSCLC; 33.6 µM in the assay with PC-3 prostate; 72.4 µM in the assay on SK-MEL-5 melanoma; 27.7 µM with NCI-H522 lung; 70.5 µM in the assay on UACC-62 melanoma. In addition, the GI50 in the assay with NCI-H23 lung is 54.5 µM; with T-47D breast, 31.2 µM; with HL-60(TB) leukemia, > 100 µM; with HCC-2998 colon, 74.2 µM. Moreover, the TGI in the assay on DU-145 prostate is > 100 µM; in the assay with HOP-92 NSCLC it was 53 µM; with PC-3 prostate it was > 100 µM; with SK-MEL-5 melanoma, > 100 µM; with NCI-H522 lung it was > 100 µM; with UACC-62 melanoma, > 100 µM. Also, the TGI in the assay with NCI-H23 lung, with T-47D breast, with HL-60(TB) leukemia and in the assay with HCC-2998 colon was > 100 µM throughout.

For the molecule `Oc1ccc2ccccc2c1N=Nc1nccs1`, the GI50 in the assay on DU-145 prostate is 2.17 µM; in the assay on HOP-92 NSCLC it was 0.389 µM; in the assay with PC-3 prostate, 1.13 µM; with SK-MEL-5 melanoma, 3.55 µM; in the assay on NCI-H522 lung, 2.22 µM; in the assay with UACC-62 melanoma, 2.3 µM. In addition, the GI50 with NCI-H23 lung was 5.83 µM; in the assay with T-47D breast, 1.71 µM; in the assay with HL-60(TB) leukemia it was 0.267 µM; in the assay with HCC-2998 colon it was 3.61 µM. The TGI is 16 µM in the assay with DU-145 prostate; > 48.8 µM with HOP-92 NSCLC; > 66.1 µM in the assay on PC-3 prostate; 15.6 µM in the assay with SK-MEL-5 melanoma; 12.4 µM in the assay on NCI-H522 lung; 24.3 µM in the assay with UACC-62 melanoma. Further, the TGI with NCI-H23 lung was 27.8 µM; in the assay with T-47D breast, 12.6 µM; in the assay on HL-60(TB) leukemia it was > 100 µM; with HCC-2998 colon it was 33.2 µM.

In the case of `COc1cc(C2=NOC(c3cc(OC)c(OC)c(OC)c3)C2)ccc1OCCCCOc1cc2c(cc1OC)C(=O)N1CCC[C@H]1C=N2` (stereo partly drawn), the GI50 in the assay with DU-145 prostate is 0.432 µM; in the assay with HOP-92 NSCLC, 0.339 µM; with PC-3 prostate it was 0.347 µM; in the assay with SK-MEL-5 melanoma, 0.168 µM; in the assay on NCI-H522 lung, 0.217 µM; in the assay on UACC-62 melanoma, 0.171 µM. In addition, the GI50 in the assay with NCI-H23 lung was 0.241 µM; with T-47D breast, 0.481 µM; in the assay with HL-60(TB) leukemia, 0.309 µM; in the assay on HCC-2998 colon, 0.192 µM. For the same molecule, the TGI in the assay on DU-145 prostate was determined as 3.28 µM; in the assay on HOP-92 NSCLC it was 3.08 µM; in the assay on PC-3 prostate, 3.1 µM; in the assay on SK-MEL-5 melanoma, 0.319 µM; in the assay with NCI-H522 lung it was 2.13 µM; in the assay with UACC-62 melanoma, 0.335 µM. Further, the TGI in the assay on NCI-H23 lung was 0.559 µM; in the assay on HL-60(TB) leukemia, 6.5 µM; with HCC-2998 colon it was 0.367 µM.

As for `FC(F)(F)c1cccc(Nc2nccc(-c3cnn4nc(-c5ccccc5)ccc34)n2)c1`, the GI50 is 7.1 µM in the assay with DU-145 prostate; 3.54 µM in the assay with HOP-92 NSCLC; 8.48 µM in the assay with PC-3 prostate; 14.7 µM in the assay with SK-MEL-5 melanoma; 6.88 µM with NCI-H522 lung; 14.4 µM in the assay on UACC-62 melanoma. For the same molecule, the GI50 in the assay on NCI-H23 lung was 9.13 µM; in the assay on T-47D breast, 8.33 µM; with HL-60(TB) leukemia it was > 25 µM; in the assay with HCC-2998 colon, 23.5 µM. For the same molecule, the TGI was > 17.4 µM in the assay on DU-145 prostate; 10.9 µM in the assay with HOP-92 NSCLC; > 20.8 µM in the assay on PC-3 prostate; > 25 µM with SK-MEL-5 melanoma; > 18.5 µM in the assay with NCI-H522 lung; > 25 µM in the assay on UACC-62 melanoma. The TGI in the assay with NCI-H23 lung, in the assay with T-47D breast, with HL-60(TB) leukemia and in the assay with HCC-2998 colon was > 25 µM throughout.

`COc1ccc(-c2cnnc3c(-c4cccc(C(F)(F)F)c4)cnn23)cc1`: the GI50 with DU-145 prostate was 3.97 µM; with PC-3 prostate, 6.22 µM; with SK-MEL-5 melanoma it was 3.85 µM; with NCI-H522 lung it was 3.66 µM; in the assay with UACC-62 melanoma, 4.01 µM; in the assay with NCI-H23 lung, 4.26 µM. The GI50 was 6.37 µM in the assay with T-47D breast, > 100 µM in the assay with HL-60(TB) leukemia and > 100 µM in the assay with HCC-2998 colon. The TGI with DU-145 prostate was > 100 µM; in the assay on HOP-92 NSCLC it was 2.85 µM; in the assay with PC-3 prostate it was > 100 µM; with SK-MEL-5 melanoma, > 100 µM; in the assay on NCI-H522 lung, > 100 µM; in the assay with UACC-62 melanoma, > 100 µM. The TGI with NCI-H23 lung, in the assay on T-47D breast, in the assay with HL-60(TB) leukemia and in the assay with HCC-2998 colon was > 100 µM in each case.

Turning to `COc1cc2c(c(O)c1Br)C(=O)c1c(O)cc(C[C@H](C)O)cc1[C@H]2[C@H]1c2cc(C[C@H](C)O)cc(O)c2C(=O)c2c1cc(OC)c(Br)c2O`, the GI50 was 4.8 µM and 23.1 µM in the assay on DU-145 prostate; 5.31 µM and 9.42 µM with HOP-92 NSCLC; 2.85 µM and 4.4 µM in the assay on PC-3 prostate; 7.44 µM and 15 µM in the assay on SK-MEL-5 melanoma; 8.02 µM and 25.7 µM with NCI-H522 lung; 2.47 µM and 17.5 µM in the assay on UACC-62 melanoma. Also, the GI50 in the assay on NCI-H23 lung was 5.85 µM and 4.83 µM; with T-47D breast, 2.04 µM and 4.09 µM; in the assay with HL-60(TB) leukemia, 3.28 µM and 17.4 µM; with HCC-2998 colon, 8.39 µM and 14.8 µM. For the same molecule, the TGI with DU-145 prostate is 67.5 µM and > 100 µM; in the assay with HOP-92 NSCLC, 32.3 µM and 39.6 µM; in the assay on PC-3 prostate, 67.5 µM and > 100 µM; in the assay on SK-MEL-5 melanoma, 16 µM and 28.5 µM; with NCI-H522 lung it was 18.9 µM and 78.7 µM; with UACC-62 melanoma, 13.7 µM and 90.7 µM. For the same molecule, the TGI is 42.1 µM and 39.3 µM in the assay on NCI-H23 lung; 13.2 µM and 23.4 µM in the assay on T-47D breast; 28 µM and 48.5 µM in the assay with HL-60(TB) leukemia; 67.5 µM and > 100 µM in the assay on HCC-2998 colon.

As for `O=C1c2cc(Cl)ccc2S(=O)(=O)c2c(NCCCNCCO)nc3ccccc3c21`, the GI50 in the assay with DU-145 prostate is 1.25 µM; in the assay on HOP-92 NSCLC, 1.01 µM; in the assay on PC-3 prostate it was 1.53 µM; in the assay on SK-MEL-5 melanoma, 2.5 µM; with NCI-H522 lung it was 0.323 µM; with UACC-62 melanoma, 1.61 µM. The GI50 with NCI-H23 lung was 1.77 µM; with T-47D breast it was 1.24 µM; with HL-60(TB) leukemia, 2.1 µM; in the assay on HCC-2998 colon, 4.31 µM. Further, the TGI with DU-145 prostate was 2.52 µM; in the assay on HOP-92 NSCLC, 2.44 µM; in the assay on PC-3 prostate, 3.66 µM; in the assay on SK-MEL-5 melanoma, 6.48 µM; in the assay on NCI-H522 lung it was 1.42 µM; with UACC-62 melanoma, 3.35 µM. Further, the TGI in the assay with NCI-H23 lung was 4.4 µM; with T-47D breast, 2.96 µM; with HL-60(TB) leukemia, 6.79 µM; with HCC-2998 colon it was 15.1 µM.

For the origin of these results see PubChem BioAssay (NCI).
